Laboratory results: PubChem BioAssay AID1996
Values after ≈ are worked out from the molar mass of the structure shown.

Details: buffer; pH 7.4; 200.0 µM

| SMILES | solubility kinetic [µg/mL] |
| --- | --- |
| Cc1ccc(-n2c(O)c(C=NCCCn3ccnc3)c(=O)[nH]c2=O)cc1 | > 53 |
| O=C1NCCN1CCN1C(=O)c2ccccc2NC1c1ccccc1 (configuration not stated) | > 50.5 |
| CCOc1ccc(NC(=O)COC(=O)Cn2nc(C)c([N+](=O)[O-])c2C)cc1OCC | > 63.1 |
| O=C(CN1C(=O)NC(c2ccccc2)(c2ccccc2)C1=O)NCc1ccco1 | 13.7 (≈ 35.2 µM) |
| Cc1cc(C)c(OCC(=O)OC(C)C(=O)NC2CC2)c(C)c1 (configuration not stated) | > 45.8 |
| O=C(Oc1c(-c2ccccc2)c(=O)n2c3c(cccc13)CC2)c1ccccc1 | 4.8 (≈ 13.1 µM) |
| CCCCn1c(O)c(C(C)=NCCc2c[nH]c3ccccc23)c(=O)[nH]c1=O | 0.4 (≈ 1.09 µM) |
| COCCn1cc(-c2csc(N)n2)c2ccccc21 | 35.1 (≈ 128 µM) |
| COc1ccc(CNC(=O)COC(=O)c2ccc(Br)c(S(=O)(=O)N3CCOCC3)c2)cc1 | 34.2 (≈ 64.8 µM) |
| CCOC(=O)c1c(CC(C)C)csc1N | 2.1 (≈ 9.24 µM) |
| Cc1cc(O)c(C2(O)C(=O)Nc3ccccc32)cc1C (configuration not stated) | > 40.4 |
| Cc1ccnc(N2C(=O)c3ccccc3C2=O)c1 | > 35.7 |
| Oc1ccc(F)c2cccnc12 | 5 (≈ 30.6 µM) |
| Cc1cc(C)cc(OCC(=O)Nc2cnn(CCCC(=O)O)c2)c1 | > 49.7 |
| Cc1ccc(NC(=O)CN(C)C(=O)c2ccc(Cl)nc2)cc1 | > 47.7 |
| CC(C)(C)NC(=O)N1c2ccccc2Sc2ccccc21 | 23 (≈ 77.1 µM) |
| Cc1ccnc(NC(=O)CCC(=O)c2cccs2)c1 | > 41.2 |
| Cc1ccc(S(=O)(=O)NCc2csc(C)n2)cc1 | > 42.4 |
| CC1(c2ccccc2)CC(c2ccccc2)=Nc2ccccc2N1 (configuration not stated) | 5.8 (≈ 18.6 µM) |
| NC(=O)c1ccc(NC(=O)COC(=O)CC23CC4CC(CC(Br)(C4)C2)C3)cc1 | > 67.4 |
| Cc1c2ccccc2nc2ccccc12 | 7.9 (≈ 40.9 µM) |
| CN(C(=O)COC(=O)Cc1ccccc1[N+](=O)[O-])C1CCS(=O)(=O)C1 (configuration not stated) | > 55.6 |
| O=C(Nc1nonc1-c1ccc(Cl)cc1)c1ccco1 | > 43.5 |
| S=C(NCc1ccco1)Nc1cccc(Cl)c1Cl | 11.3 (≈ 37.5 µM) |

| SMILES | solubility kinetic [µg/mL] |
| --- | --- |
| O=C(Nc1ccc(Br)cc1)c1ccccc1Br | 7.3 (≈ 20.6 µM) |
| Cc1c(C(=O)NC(C)c2ccccn2)oc2c(Cl)cccc12 (configuration not stated) | 24.4 (≈ 77.5 µM) |
| O=C(Nc1ccncc1)c1ccc2ccccc2c1 | 16.5 (≈ 66.5 µM) |
| CC(C)Cc1cc(C(=O)Nc2ccccc2)c2ccccc2n1 | 3.9 (≈ 12.8 µM) |
| COc1ccc(C(=O)NCCCNC(=O)c2ccco2)cc1OC | > 49.9 |
| COc1ccc(NC(=O)COC(=O)Cc2coc3cc(OC)ccc23)c(OC)c1 | 11.8 (≈ 29.5 µM) |
| CC(=O)Nc1ccc(SCC(=O)Nc2ccc(Cl)cn2)cc1 | 9.6 (≈ 28.6 µM) |
| Cn1c(=O)c([N+](=O)[O-])c(NCCCn2ccnc2)c2ccccc21 | > 49.1 |
| N#Cc1ccc(NC(=O)c2cc(=O)c3ccccc3o2)cc1 | 0.8 (≈ 2.76 µM) |
| CC(C)(C)c1ccc(NC(=O)c2ccsc2)cc1 | 1.1 (≈ 4.24 µM) |
| Cc1ccc(S(=O)(=O)Nc2c(C)nn(C)c2C)c(C)c1 | > 44 |
| CC1=C(C(=O)OCC2CCCCC2)C(c2ccc(F)cc2)NC(=O)N1 (configuration not stated) | 0.5 (≈ 1.44 µM) |
| Cc1cccc(NC(=O)c2ccc(-c3ccccc3[N+](=O)[O-])o2)c1 | 12.8 (≈ 39.7 µM) |
| OCCNc1nc(Cl)nc(NCc2ccco2)n1 | > 40.5 |
| Cc1cccc(C)c1NC(=O)CNC(=O)c1ccccc1 | 24.9 (≈ 88.2 µM) |
| CCC(C)c1ccc(NC(=S)N2CCCC2)cc1 (configuration not stated) | > 39.4 |
| O=C(OCC(=O)N1CCc2ccccc2C1)c1cccs1 | 36.8 (≈ 122 µM) |
| CN1CCN(c2ccccc2NC(=O)c2ccc(F)cc2)CC1 | > 47 |
| Cc1noc(C)c1COC(=O)CNC(=O)c1cccc(F)c1 | 45.9 (≈ 150 µM) |
| C=CCn1c(=O)c2c(nc3n2CCCN3Cc2ccccc2)n(C)c1=O | 19.5 (≈ 55.5 µM) |
| CC(=O)Nc1nc2cccc([N+](=O)[O-])c2s1 | 2.8 (≈ 11.8 µM) |
| CCc1ccccc1OCCCN1CCCC1.O=C(O)C(=O)O | 43.9 |
| Cc1ccc(-c2cc(C(=O)N3CC4(C)CC3CC(C)(C)C4)no2)cc1 (configuration not stated) | < 0.4 |
| Cc1cc(C)nc(NC(=O)c2ccc(Br)s2)n1 | > 46.8 |

| SMILES | solubility kinetic [µg/mL] |
| --- | --- |
| COc1ccc(NC(=O)CNc2ccccc2C(C)=O)cc1S(=O)(=O)N1CCOCC1 | 63.9 (≈ 143 µM) |
| Cc1ccc(C(=O)COC(=O)c2nc(Cl)ccc2Cl)cc1 | 48.4 (≈ 149 µM) |
| CN(CC(=O)NC1CCCCCCC1)S(=O)(=O)c1cnc[nH]1 | > 49.3 |
| CCOC(=O)c1ccc(N2C(=O)CC(Sc3nc(C)cc(C)n3)C2=O)cc1 (configuration not stated) | 4 (≈ 10.4 µM) |
| CNCC(=O)Nc1ccc(OC(F)(F)F)cc1.Cl | 41.4 |
| CC(=O)c1cn(CC(=O)Nc2ccccc2Cl)c2ccccc12 | 1 (≈ 3.06 µM) |
| CC(C)c1ccc(C(=O)Nc2cccnc2)cc1 | > 36 |
| COCc1cc(C)nc(Oc2ccccc2)c1C#N | > 38.1 |
| O=C(NCc1ccncc1)Nc1cccc([N+](=O)[O-])c1 | > 40.8 |
| Cc1ccc(S(=O)(=O)N(Cc2ccccc2)C(C)C)cc1 | 5 (≈ 16.5 µM) |
| COc1cc(/C=C(\C#N)C(=O)NCC2CCCO2)ccc1OCCC(C)C (configuration not stated) | 7.9 (≈ 21.2 µM) |
| O=C(CSc1nnc2ccccn12)c1ccc(Cl)cc1 | > 45.6 |
| Cc1ccc(NC(=O)Nc2cccnc2)cc1Cl | 23.3 (≈ 89 µM) |
| NC(=S)C1COc2ccccc2O1 (configuration not stated) | > 29.3 |
| COC(=O)COc1c(Cl)cc(Cl)c2ccc(C)nc12 | 6.7 (≈ 22.3 µM) |
| CCOc1ccc2[nH]c3c(N4CCc5ccccc5C4)ncnc3c2c1 | 1.2 (≈ 3.48 µM) |
| Cc1cccc(C)c1NC(=O)Cn1c(=O)c(N2CCCCC2)c(N)n(C)c1=O | > 57.8 |
| C[C@H](NC(=O)c1ccc2c(c1)OCO2)c1nnc2ccccn12 | > 46.5 |
| O=C(Nc1ccc([N+](=O)[O-])cc1)N1CCCCCC1 | > 39.5 |
| CCc1ccc(CNC(=O)CCc2cn(C)c3ccccc23)cc1 | 1.2 (≈ 3.74 µM) |
| N#Cc1c(-c2ccc(F)cc2)ccnc1N1CCOCC1 | > 42.5 |
| O=C(NC1CCSc2ccccc21)c1ccc([N+](=O)[O-])cc1 (configuration not stated) | 3.5 (≈ 11.1 µM) |
| O=C(COC(=O)c1cc(S(=O)(=O)N2CCCCC2)ccc1Cl)NC1CCS(=O)(=O)C1 (configuration not stated) | > 71.8 |
| COc1ccc(C/C(N)=N/OC(=O)c2cccs2)cc1 | 7.5 (≈ 25.8 µM) |

| SMILES | solubility kinetic [µg/mL] |
| --- | --- |
| CN(CCOc1ccc(Cl)cc1)C(=O)C1=CC=CN2CCS(=O)(=O)N=C12 | > 59.4 |
| Cc1cc(C)n(/C(=C/N(C)C)C(=O)c2ccccc2)n1 | > 40.4 |
| Cc1ccc(NC(=S)N2CCN(S(C)(=O)=O)CC2)cc1C | 9.1 (≈ 27.8 µM) |
| CCOCCCNc1c(CC)c(C)c(C#N)c2nc3ccccc3n12 | 6.5 (≈ 19.3 µM) |
| c1ccc(N2CCN(Cc3ccc4c(c3)OCO4)CC2)nc1 | 32.1 (≈ 108 µM) |
| O=S(=O)(Nc1ccc(S(=O)(=O)N2CCCC2)cc1)c1ccc(F)cc1F | > 60.4 |
| Cc1ccc(OCC(=O)O/N=C(\N)c2cccc([N+](=O)[O-])c2)cc1C | 1.8 (≈ 5.24 µM) |
| COc1ccc2c(c1)c(C(=O)CN1CCc3ccccc3C1)c(C)n2C | 29.6 (≈ 84.9 µM) |
| CCC(C)NC(=O)c1ccc(NC(=O)C2=C(C)OCCS2)cc1 (configuration not stated) | > 50.2 |
| CCCc1ccc2oc(C(=O)N(C)Cc3cnccn3)c(C)c2c1 | 26.8 (≈ 82.9 µM) |
| Cc1ccc(S(=O)(=O)c2c(C)cc(C)[nH]c2=O)cc1 | > 41.6 |
| COc1ccc(N(C)S(=O)(=O)c2cccc(C(=O)OCC(=O)N(C)c3ccccc3)c2)cc1 | 7.9 (≈ 16.9 µM) |
| CN1CCN(S(=O)(=O)c2cc([N+](=O)[O-])ccc2Cl)CC1 | > 48 |
| NC(=O)C1CCN(C(=O)c2cc3ccccc3cc2O)CC1 | > 44.8 |
| C[N+](C)(C)CCOc1ccc([N+](=O)[O-])cc1.[Br-] | > 45.8 |
| O=C(O)CC1(CC(=O)Nc2cc(F)ccc2Cl)CCCCC1 | > 49.2 |
| COc1ccccc1CNC(=O)C1CCCC1 | > 35 |
| O=C(Nc1cccc(S(=O)(=O)N2CCCCC2)c1)c1ccc(Cl)nc1 | 4.4 (≈ 11.6 µM) |
| O=C(Cn1cc(C(F)(F)F)ccc1=O)N/N=C/c1ccccc1 | > 48.5 |
| O=C(Cn1c(=O)oc2ccccc21)N1CCCC1 | > 36.9 |
| Cc1cc(C)cc(NC(=O)COC(=O)c2cc(C)oc2C)c1 | < 0.6 |
| O=C1OC(c2ccccc2)=N/C1=C\C=C\c1ccco1 | 2 (≈ 7.54 µM) |
| COC(=O)c1ccccc1NC(=O)c1ccc2c(c1)OCCCO2 | 4.1 (≈ 12.5 µM) |
| O=C(O)c1cn(-c2ccc(F)cc2)c2cc(Cl)c(F)cc2c1=O | > 50.4 |

| SMILES | solubility kinetic [µg/mL] |
| --- | --- |
| CCOC(=O)c1c(C=O)c2ccccc2n1Cc1ccccc1 | < 0.7 |
| CCOC(=O)c1nc2c(ccc3ccccc32)cc1C | < 0.6 |
| Cc1ccc(CNC(=O)CSCc2ccccc2)cc1 | 19.7 (≈ 69 µM) |
| O=C(CCc1ccccc1)Nc1cccnc1 | > 33.9 |
| CCOc1ccc2nc(NCCNC(=O)C(C)(C)C)c(C)cc2c1 | 47.1 (≈ 143 µM) |
| Nc1ccccc1-c1nnc(SCC(=O)Nc2ccccc2OC(F)F)[nH]c1=O | > 62.9 |
| CN(CC(=O)N1CCCCC1)S(=O)(=O)c1ccc(Cl)cc1 | 47.5 (≈ 144 µM) |
| Cn1c(N)c(N2CCCCC2)c(=O)n(CC(=O)Nc2cccc(C#N)c2)c1=O | > 57.4 |
| COc1ccc(OCC(O)CN2CC(C)OC(C)C2)cc1.Cl (configuration not stated) | > 49.8 |
| Cc1ccc(S(=O)(=O)N2C(=O)c3cccc4cccc2c34)cc1 | 3.7 (≈ 11.4 µM) |
| Cc1ccc(C)c(NC(=O)C[n+]2ccccc2)c1.[Cl-] | 40.8 |
| COc1ccccc1N(CCOc1ccccc1)S(=O)(=O)c1ccccc1 | 3.9 (≈ 10.2 µM) |
| CN1CCN(CC(O)COc2ccccc2)CC1 (configuration not stated) | 33.4 (≈ 133 µM) |
| CC1(C)CC(=O)c2cnc3nc4ccccc4n3c2C1 | 26.6 (≈ 100 µM) |
| O=C(COC(=O)c1cc(-c2ccccc2)nc2ccccc12)NC1CC1 | 6.6 (≈ 19.1 µM) |
| Cc1c(Cl)cn2c(=O)cc(CN3CCN(c4ccc(F)cc4)CC3)nc2c1Cl | 5 (≈ 11.9 µM) |
| CC(=O)Nc1ccc(N2CCN(Cc3ccccc3)CC2)cc1 | 43.5 (≈ 141 µM) |
| CS(=O)(=O)N1c2cccc3cccc(c23)S1(=O)=O | 7.7 (≈ 27.2 µM) |
| N#CCC(=O)Nc1ccc(C(=O)OCC(=O)NC2CCCc3ccccc32)cc1 (configuration not stated) | 7.5 (≈ 19.2 µM) |
| CC(NC(=O)COC(=O)Cc1ccc(Cl)cc1)c1ccccc1 (configuration not stated) | > 49.8 |
| CC(=O)Nc1ccc(NC(=O)COC(=O)[C@@H]2CCCN2C(=O)c2cccs2)cc1 | > 62.3 |
